Results taken from patent US7378397B2 (The Provost, Fellows and Scholars of the College of the …, priority 2000, dated 2008).

Legend:
TRH-DE [1] = target: T1, TRH-DE (Sus scrofa, UniProt A0A287AP33); experiment: HPLC assay of peptide hydrolysis by TRH-DE (Glp production); assay type: biochemical, porcine; conditions: for hydrolysis by TRH-DE (release of Glp): 1 mM peptide incubated with TRH-DE 18 h at 37° C., HPLC
T1 construct: The inventor purified TRH-DE from porcine brain according to purification procedures previously published by Dr. K. Bauer; from tissue; host or cells: porcine brain (TRH-DE); bovine kidney (DPP-IV, gift from Dr. C. H. Williams)
T1 sequence (A0A287AP33 1-1066): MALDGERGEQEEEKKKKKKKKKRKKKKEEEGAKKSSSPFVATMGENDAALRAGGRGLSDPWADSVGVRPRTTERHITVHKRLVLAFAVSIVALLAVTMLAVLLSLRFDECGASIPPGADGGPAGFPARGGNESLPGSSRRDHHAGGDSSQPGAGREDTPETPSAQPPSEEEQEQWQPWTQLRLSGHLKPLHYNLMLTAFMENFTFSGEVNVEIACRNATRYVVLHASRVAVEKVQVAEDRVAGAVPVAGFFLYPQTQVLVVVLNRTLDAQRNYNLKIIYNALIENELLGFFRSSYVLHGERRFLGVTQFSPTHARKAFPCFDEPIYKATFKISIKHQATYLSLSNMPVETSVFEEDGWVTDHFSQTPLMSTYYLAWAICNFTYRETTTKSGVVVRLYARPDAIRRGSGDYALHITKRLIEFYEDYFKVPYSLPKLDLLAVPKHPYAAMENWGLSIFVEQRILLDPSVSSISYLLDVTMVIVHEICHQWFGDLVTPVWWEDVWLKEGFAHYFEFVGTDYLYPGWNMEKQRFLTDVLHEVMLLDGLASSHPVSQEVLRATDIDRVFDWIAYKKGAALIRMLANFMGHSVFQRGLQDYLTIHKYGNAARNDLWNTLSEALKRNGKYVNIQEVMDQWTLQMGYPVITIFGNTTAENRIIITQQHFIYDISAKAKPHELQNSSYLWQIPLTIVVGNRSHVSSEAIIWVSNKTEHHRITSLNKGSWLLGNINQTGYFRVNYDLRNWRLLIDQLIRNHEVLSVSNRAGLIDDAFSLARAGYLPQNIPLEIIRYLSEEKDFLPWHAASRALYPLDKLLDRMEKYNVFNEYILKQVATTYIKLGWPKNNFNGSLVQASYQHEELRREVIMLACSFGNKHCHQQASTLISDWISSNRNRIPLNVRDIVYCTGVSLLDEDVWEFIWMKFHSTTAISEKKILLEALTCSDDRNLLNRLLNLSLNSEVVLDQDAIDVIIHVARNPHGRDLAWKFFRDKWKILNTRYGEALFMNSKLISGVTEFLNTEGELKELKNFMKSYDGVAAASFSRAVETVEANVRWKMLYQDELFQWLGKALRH
Protocol: The inventor purified TRH-DE from porcine brain according to purification procedures previously published by Dr. K. Bauer, (Max-Planck-Institut, Hannover, Germany) (1). TRH-DE was purified almost 20,000 fold. […] Dipeptidyl peptidase IV (DPP-IV) (EC 3.4.14.5), purified from bovine kidney (7.7 mg ml^−1, specific activity of 17.5 U mg^−1 with Gly-ProAMC as substrate), was obtained as a gilt from Dr. C. H. Williams (Queen's University Belfast, U.K). (DPP-IV was used as the coupling enzyme used in the fluorometric assays).
One unit (U) of enzyme activity was defined as that amount catalysing the formation of one μmol of product in one minute under the standard conditions employed. All incubations in the assays described below were carried out in 20 mM potassium phosphate buffer, pH 7.5, at 37° C.
Kinetic analysis of the peptide library using HPLC—The ability of each peptide in the library to act as a TRH-DE substrate was assessed using HPLC. As an initial screen, 1 mM peptide was incubated with 0.8 μg TRH-DE in a total volume of 1 ml for 18 h at 37° C. Control samples were included in which peptide (1 mM) or Glp (0.2 mM-0.8 mM) were incubated under identical conditions in the absence of TRH-DE. TRH-DE activity was terminated by the addition of TFA (0.15% v/v) and samples were then analysed using HPLC as described previously (24). Products resulting from TRH-DE hydrolysis could be separated on a C-18 reverse-phase column (Hypersil, UK) using a linear gradient of 0-70% acetonitrile in 0.08% (v/v) TFA. The concentration of Glp formed by the action of TRH-DE on the peptide library was measured by UV absorbance at 206 nm with a quantitative detection limit of 0.1 mM for a 40 μl injection volume, employing a signal to noise ratio of 10. Following the incubation of each peptide with TRH-DE, evidence of Glp in the sample was taken to indicate that the peptide was a TRH-DE substrate.
The rates of hydrolysis for each of those peptides identified as substrates were then compared by measuring Gip production using microassays with shorter incubation times. In these assays peptide (1 mM) was incubated at 37° C. in a total volume of 100 μl. 0.8-3.2 μg TRH-DE and incubations times of 5 min to 18 h were used routinely. Measurements were made in triplicate. The rate of TRH-OH hydrolysis was also measured by this method.

[2] = target: TRH receptors in rat cortical membranes; experiment: radioligand binding to ^3H-3MeHis-TRH-labelled receptors in rat cortex; conditions: competition with 6-8 nM ^3H-3MeHis-TRH, Cheng-Prusoff
Protocol: Evaluation of the ability of TRH, Glp-Asn-ProNH2, and Glp-Asn-ProAMC to bind to ^3H-3MeHis-TRH-labelled receptors in rat cortex: Radioligand binding assays were conducted to investigate the possibility that the two TRH-DE inhibitors might exert their effects by acting independently at TRH receptors in the brain.
Cortex tissue from male Sprague-Dawley rats (250 g) was dissected out, weighed and homogenised in 30 volumes of ice-cold sodium phosphate buffer (0.02 M, pH 7.5). The homogenates were centrifuged at 30,000 g at 4° C. for 30 min. The supernatant was discarded and the pellet was resuspended at 100 mg wet wt/ml in buffer containing 177 μM bacitracin. […] Non-specific binding was defined in the presence of 10 μM TRH.
The statistical significance of differences between behavioural effects of treatments was determined using the Student's t-test or ANOVA, followed by a post-ANOVA test, as indicated. Radioligand binding data were analysed using non-linear curve fitting software (Prism, Graph Pad Software Inc.). IC50 values calculated from competition experiments were converted to Ki values using the Cheng-Prusoff (41) equation Ki=IC50/(1+L/Kd), where L=ligand concentration and Kd=the apparent dissociation constant for [^3H]-[3-MeHis]TRH.

TRH-DE [3] = target: T1, TRH-DE; conditions: From Ref. 23 (inventor's publication); cited from earlier work
Male Wistar rats [4] = experiment: behavioural effects (activity score, WDS, locomotion) after i.p. administration; assay type: in vivo, rat; conditions: i.p.
Protocol: Methods: Behavioural studies were conducted using experimentally naïve Male Wistar rats (200-250 g) maintained in a temperature controlled (21° C.), artificially-lighted (12 hr light cycle) room with free access to food and water. Behavioural effects of TRH±TRH-DE inhibitor following intraperitoneal (i.p.) administration: On the day of the experiment, animals were singly housed in perspex cages (30×20×20 cm) and allowed to acclimatize for 20 min. After this period, two baseline measurements of behaviour were made at 10 and 5 min prior to administration of drugs. […] Animals were then observed by two independent observers who were blind to treatment, every 5 min for 30 sec. Blocks of 5 animals were treated at a time, 1 per drug group. Blocks were repeated 5 times. The occurrence of individual behaviours were noted using a behavioural check list, which included grooming, locomotion, rearing, chewing, sniffing, head weave, tail elevation, and/or straub tail and WDS behaviours. These behaviours were summed to yield an overall activity count. Animals were videotaped for separate subsequent analysis of WDS. All WDS behaviours occurring during each 5 min interval after drug administration were counted. The statistical significance of differences between behavioural effects of treatments was determined using the Student's t-test or ANOVA, followed by a post-ANOVA test, as indicated. Radioligand binding data were analysed using non-linear curve fitting software (Prism, Graph Pad Software Inc.). IC50 values calculated from competition experiments were converted to Ki values using the Cheng-Prusoff (41) equation Ki=IC50/(1+L/Kd), where L=ligand concentration and Kd=the apparent dissociation constant for [^3[…].

Male Wistar rats [5] = experiment: behavioural effects (WDS, locomotion) after i.c.v. administration; assay type: in vivo, rat; conditions: 30 min
Protocol: Methods: Behavioural studies were conducted using experimentally naïve Male Wistar rats (200-250 g) maintained in a temperature controlled (21° C.), artificially-lighted (12 hr light cycle) room with free access to food and water. Behavioural effects of […] following intra-cerebroventricular (i.c.v.) administration: Animals were implanted with guide cannula aimed at the lateral cerebral ventricles (AP-0.92 mm, ML-1.5 mm, DV-2.6 mm relative to Bregma, atlas of Paxinos & Watson) under halothane anaesthesia. One week following surgery placement of the cannulae was assessed by the ability of a microinjection of angiotensin II (200 ng in 1 μl) to induce drinking behaviour. […] They were then administered either vehicle (1 μl 0.9% saline) or […] (5 μg in 1 μl) followed 1 minute later by vehicle (1 μl 0.9% saline) or TRH (5 μg in 1 μl). One minute after the last i.c.v. injection animals were placed back into the perspex cage and their behaviour monitored by a computer automated tracking system for 30 minutes (Ethovision Pro, Noldus) to provide measures of locomotor activity. Animals were videotaped for subsequent blind analysis of WDS behaviour by a trained observer. A threshold dose of 5 μg TRH was chosen for i.c.v. administration so that if […] enhanced responses to TRH, this would be clearly visible. The statistical significance of differences between behavioural effects of treatments was determined using the Student's t-test or ANOVA, followed by a post-ANOVA test, as indicated. Radioligand binding data were analysed using non-linear curve fitting software (Prism, Graph Pad Software Inc.). IC50 values calculated from competition experiments were converted to Ki values using the Cheng-Prusoff (41) equation Ki=IC50/(1+L/Kd), where L=ligand concentration and Kd=the apparent dissociation constant for [^3[…].

For `NC(=O)[C@@H]1CCCN1C(=O)[C@H](Cc1cnc[nH]1)NC(=O)[C@@H]1CCC(=O)N1` [Glp-His-ProNH2, L-pyroglutamyl-L-histidyl-L-prolineamide], the “hydrolysis by TRH-DE (release of Glp)” value (TRH-DE [1]) was “degraded fully”, the “hydrolysis by TRH-DE (release of Glp)” value (TRH-DE [1]; listed as TRH) was “no TRH (RT 8.566 min) remained” and the Vmax (TRH-DE [1]; estimated from HPLC rates of hydrolysis using Vmax=vo{(Km+[S])/[S]}) was 2.63 ± 0.26 (11) U mg^−1. For the same compound, the Rate of hydrolysis (TRH-DE [1]; peptide 1 mM, 37° C., Glp production by HPLC, mean±S.D.) was 2.54 ± 0.25 (11) U mg^−1, the pKi [2] was 7.65±0.17 and the Km (TRH-DE [3]) was 35 µM. For the same compound, the “individual behaviours contributing to the activity score” value (Male Wistar rats [4]; 10 mg/kg) was “primarily promoted grooming, sniffing, and chewing behaviours”, the “rat activity scores compared with saline” value (Male Wistar rats [4]; 10 mg/kg each, 40 min post injection) was “increase in rat activity scores throughout the 40 min period post injection” and the “decline of behavioural responses with time” value (Male Wistar rats [4]; 10 mg/kg each, late observation period) was “tended to decline 35 min after i.p. administration”. For the same compound, the “induction of WDS” value (Male Wistar rats [4]; 10 mg/kg, 40 min observation) was “immediate induction of WDS in all animals with the response gradually declining to zero after 40 min”, the “number of WDS compared with vehicle” value (Male Wistar rats [5]; 5 μg alone) was “Neither TRH nor Glp-Asn-ProAMC alone produced a significantly greater number of WDS than vehicle” and the “number of WDS during the observation period” value (Male Wistar rats [5]; TRH 5 μg ± Glp-Asn-ProAMC 5 μg, mean±S.E., n=6) was 3.33±1.23 WDS/30 min.
